This passage reports GI50 and TGI results from PubChem BioAssay (NCI).

Some test systems named below: EKVX NSCLC; HOP-92 NSCLC; HT29 colon; IGROV1 ovarian; KM12 colon; NCI-H23 lung; NCI-H522 lung; OVCAR-4 ovarian; OVCAR-8 ovarian; SK-OV-3 ovarian.
Holding throughout (assay): NCI tumour cell line growth inhibition, 48 h

“And” between values parts separate entries of the source, which are not always exact repeats. Identical values can stand only once.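 Interpolation was linear, between the two tested concentrations surrounding the appropriate level; five concentrations were tested over 48 hours in 96-well plates. GI50: concentration for 50% inhibition of growth. The concentration for full growth arrest is given as TGI.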 Where only a bound is given, the exact number is not on record here.

As for `COc1ccc(-c2nn(C(=O)c3cc(OC)c(OC)c(OC)c3)c3cc(N)ccc23)cc1`, the GI50 in the assay with EKVX NSCLC is < 0.0187 µM; with HOP-92 NSCLC it was 1.86 µM; in the assay with HT29 colon, < 0.0142 µM; with IGROV1 ovarian it was 0.0207 µM; in the assay with KM12 colon it was < 0.01 µM; in the assay with NCI-H23 lung it was 0.0292 µM. Besides, the GI50 with NCI-H522 lung is < 0.01 µM; in the assay on OVCAR-4 ovarian, < 0.0195 µM; in the assay on OVCAR-8 ovarian, < 0.0156 µM; with SK-OV-3 ovarian it was 0.0316 µM. For the same compound, the TGI in the assay with EKVX NSCLC came to 51.3 µM; in the assay on HOP-92 NSCLC, 25.8 µM; in the assay with HT29 colon it was 1.13 µM; with IGROV1 ovarian, 15.9 µM; in the assay with KM12 colon, 1.83 µM; in the assay with NCI-H23 lung, 15.7 µM. The TGI in the assay with NCI-H522 lung was found to be 1.12 µM; in the assay on OVCAR-4 ovarian, 12.9 µM; with OVCAR-8 ovarian, 7.28 µM; with SK-OV-3 ovarian it was 7.28 µM.
Regarding `CCCCCCOc1ccc(/C=N/Nc2cc(C)nc3ccc(Br)cc23)cc1`, the GI50 in the assay on EKVX NSCLC was 1.72 µM; in the assay with HOP-92 NSCLC, 1.45 µM; in the assay on HT29 colon, 1.63 µM; with IGROV1 ovarian it was 1.75 µM; with KM12 colon, 1.8 µM; with NCI-H23 lung, 1.78 µM. Also, the GI50 with NCI-H522 lung was 1.7 µM; in the assay on OVCAR-4 ovarian, 1.81 µM; in the assay on OVCAR-8 ovarian, 2.07 µM; in the assay on SK-OV-3 ovarian, 1.66 µM. Further, the TGI came to 3.14 µM in the assay on EKVX NSCLC; 2.97 µM in the assay on HOP-92 NSCLC; 3.12 µM with HT29 colon; 3.45 µM in the assay with IGROV1 ovarian; 3.5 µM in the assay with KM12 colon; 3.43 µM in the assay with NCI-H23 lung. Further, the TGI was determined as 3.32 µM with NCI-H522 lung, 3.46 µM with OVCAR-4 ovarian, 4.12 µM with OVCAR-8 ovarian and 3.07 µM in the assay with SK-OV-3 ovarian.
Take `COC(=O)c1cccc(COc2ccc([N+](=O)[O-])cc2Cl)c1`: the TGI with EKVX NSCLC, in the assay with HOP-92 NSCLC, with HT29 colon, in the assay on IGROV1 ovarian, in the assay on KM12 colon and in the assay on NCI-H23 lung was > 100 µM in each case. Besides, the TGI with NCI-H522 lung, in the assay with OVCAR-4 ovarian, in the assay with OVCAR-8 ovarian and in the assay on SK-OV-3 ovarian was > 100 µM in each case.
`COc1nc(C(Cl)(Cl)Cl)c(Cl)c(OC)c1Cl`: the GI50 is > 55.4 µM in the assay with EKVX NSCLC; > 40.4 µM with HOP-92 NSCLC; > 57 µM with HT29 colon; > 58.5 µM in the assay with IGROV1 ovarian; > 56.7 µM in the assay with KM12 colon; > 31.6 µM in the assay with NCI-H23 lung. The GI50 in the assay with OVCAR-4 ovarian is > 52.1 µM; in the assay on OVCAR-8 ovarian, > 61.5 µM; with SK-OV-3 ovarian it was > 64.2 µM. The TGI is > 94.7 µM and 78.3 µM in the assay with EKVX NSCLC; > 59.3 µM and 62 µM in the assay with HOP-92 NSCLC; 96.5 µM in the assay with HT29 colon; 89.8 µM with IGROV1 ovarian; > 91 µM and 70.1 µM in the assay with KM12 colon; > 31.6 µM and 79.4 µM with NCI-H23 lung. Besides, the TGI with NCI-H522 lung was > 31.6 µM and 70.4 µM; with OVCAR-4 ovarian, 99.9 µM and 66.3 µM; in the assay on OVCAR-8 ovarian it was 55.6 µM; in the assay with SK-OV-3 ovarian it was 26.9 µM.
On to `COc1ccc(/C=C\c2cc(OC)c(OC(C)=O)c(OC)c2)cc1`, for which the TGI is > 100 µM with EKVX NSCLC; 68.3 µM with HOP-92 NSCLC; 47.9 µM with HT29 colon; > 100 µM in the assay on IGROV1 ovarian; 61.2 µM with KM12 colon; 63.4 µM with NCI-H23 lung. Further, the TGI is 39.7 µM in the assay on NCI-H522 lung, > 100 µM in the assay with OVCAR-4 ovarian, 76.7 µM in the assay with OVCAR-8 ovarian and > 100 µM in the assay with SK-OV-3 ovarian.
For the compound `CSc1nnc2n1-c1ccccc1SCC2`, the TGI with EKVX NSCLC, with HOP-92 NSCLC, in the assay with HT29 colon, with IGROV1 ovarian, in the assay on KM12 colon and with NCI-H23 lung was > 100 µM throughout. In addition, the TGI with NCI-H522 lung, in the assay with OVCAR-4 ovarian, in the assay on OVCAR-8 ovarian and with SK-OV-3 ovarian was > 100 µM throughout.
`COc1ccccc1NC(=O)C(=O)C(C#N)CC(C)(C)C=O` (centres undefined): the TGI in the assay with EKVX NSCLC, in the assay with HOP-92 NSCLC, in the assay with HT29 colon, in the assay on IGROV1 ovarian, in the assay with KM12 colon and with NCI-H23 lung was > 100 µM throughout. Besides, the TGI with NCI-H522 lung, with OVCAR-4 ovarian, with OVCAR-8 ovarian and with SK-OV-3 ovarian was > 100 µM in each case.
Turning to `COc1ccc2nc3c(cc2c1)C(=O)CC(C(F)(F)F)C3` (centres undefined), the GI50 was 4.46 µM in the assay on EKVX NSCLC; 2.8 µM in the assay with HOP-92 NSCLC; 0.433 µM in the assay on HT29 colon; 0.792 µM in the assay on IGROV1 ovarian; 0.351 µM in the assay with KM12 colon; 5.39 µM with NCI-H23 lung. Moreover, the GI50 in the assay with NCI-H522 lung is 0.49 µM; in the assay on OVCAR-4 ovarian, 27 µM; in the assay on OVCAR-8 ovarian, 1.22 µM; with SK-OV-3 ovarian, 4.23 µM. For the same compound, the TGI in the assay on EKVX NSCLC was > 100 µM; in the assay on HOP-92 NSCLC, 94.2 µM; in the assay with HT29 colon it was > 100 µM; in the assay with IGROV1 ovarian, > 100 µM; in the assay on KM12 colon, > 100 µM; with NCI-H23 lung, > 100 µM. The TGI with NCI-H522 lung, in the assay with OVCAR-4 ovarian, in the assay with OVCAR-8 ovarian and in the assay with SK-OV-3 ovarian was > 100 µM throughout.
As for `CC(=O)SC(C[N+](=O)[O-])c1ccccc1` (centres undefined), the TGI in the assay on EKVX NSCLC is 16 µM; in the assay on HOP-92 NSCLC, 30.4 µM; with HT29 colon it was 4.22 µM; in the assay on IGROV1 ovarian, 5.02 µM; in the assay on KM12 colon it was 22.6 µM; in the assay on NCI-H23 lung, 38.3 µM. In addition, the TGI in the assay on NCI-H522 lung turned out to be 31 µM; in the assay on OVCAR-4 ovarian, 5.46 µM; with OVCAR-8 ovarian, 26 µM; in the assay with SK-OV-3 ovarian, 26.2 µM.
As to `C[C@]12CC[C@H](O)CC1CCC[C@@H]2O` (some centres undefined), the TGI in the assay on EKVX NSCLC, with HOP-92 NSCLC, in the assay on HT29 colon, with IGROV1 ovarian, with KM12 colon and with NCI-H23 lung was > 100 µM each time. In addition, the TGI in the assay with NCI-H522 lung, with OVCAR-4 ovarian, in the assay with OVCAR-8 ovarian and with SK-OV-3 ovarian was > 100 µM throughout.
As to `CCn1cc(C(=O)O)c(=O)c2cc(F)c(N3CCNCC3)nc21`, the TGI in the assay with EKVX NSCLC, with HOP-92 NSCLC, in the assay on HT29 colon, in the assay with IGROV1 ovarian, in the assay with KM12 colon and in the assay on NCI-H23 lung was > 100 µM in each case. Further, the TGI with NCI-H522 lung, in the assay with OVCAR-4 ovarian, in the assay with OVCAR-8 ovarian and in the assay with SK-OV-3 ovarian was > 100 µM each time.
